Like-named read-outs stand apart in the source and are kept apart here.

The values below come from patent US11466023B2, “Combination of a Mcl-1 inhibitor and a standard of care treatment for hematologic cancers, uses and pharmaceutical compositions thereof” (LES LABORATOIRES SERVIER, priority 2017, dated 2022).

In data set [1] the test system is EOL-1 AML cell line. Kind of data set: Single agent cell viability (CellTiterGlo). Type of data set: cell-based. The method, then:
(§1) Cell lines were cultured at 37° C. in a humidified atmosphere containing 5% CO2 and expanded in T-150 flasks. […] In order to analyse the activity of the compounds as single agents, cells were seeded and treated with nine 2-fold serial dilutions of each compound dispensed individually directly into the cell assay plates. […] All the experiments were performed in triplicates. Luminescence was quantified on a multipurpose plate reader. Single agent IC50s were calculated using standard four-parametric curve fitting.

For data set [2], the system named is MOLM-13 AML cell line. Kind of data set: Single agent cell viability (CellTiterGlo). Type of data set: cell-based. The method, then:
as §1
(In general: Cellular ATP, detected with luciferase, serves as a proxy for viable cell number.)

Data set [3] concerns HL-60 AML cell line. Kind of data set: Single agent cell viability (CellTiterGlo). It is filed as cell-based. The method, then: as §1
Data set [4] has as its system Nomo-1 AML cell line. Kind of data set: Single agent cell viability (CellTiterGlo). It is filed as cell-based. The method, then:
as §1

In data set [5] the test system is KG1a AML cell line. Kind of data set: Single agent cell viability (CellTiterGlo). It is filed as cell-based. How it is done:
as §1

Data set [6] deals with OCI-AML3 AML cell line. Kind of data set: Single agent cell viability (CellTiterGlo). It is filed as cell-based. The method, then: as §1
For data set [7], the system named is MV4; 11 AML cell line. Kind of data set: Single agent cell viability (CellTiterGlo). Type of data set: cell-based. The method, then:
as §1

Data set [8] deals with GDM-1 AML cell line. Kind of data set: Single agent cell viability (CellTiterGlo). Type of data set: cell-based. How it is done: as §1
In data set [9] the test system is ML-2 AML cell line. Kind of data set: Single agent cell viability (CellTiterGlo). It is filed as cell-based. How it is done: as §1
In data set [10] the test system is KG1 AML cell line. Kind of data set: Single agent cell viability (CellTiterGlo). Type of data set: cell-based. How it is done: as §1
In data set [11] the test system is THP-1 AML cell line. Kind of data set: Single agent cell viability (CellTiterGlo). Type of data set: cell-based. How it is done: as §1
For data set [12], the system named is PL-21 AML cell line. Kind of data set: Single agent cell viability (CellTiterGlo). Type of data set: cell-based. How it is done: as §1
The subject of data set [13] is Kasumi-1 AML cell line. Kind of data set: Single agent cell viability (CellTiterGlo). Type of data set: cell-based. The method, then: as §1
Data set [14] relates to primary AML samples. The following applies: a subset of primary AML samples, 100 nM.
Data set [15] deals with normal human CD34+ progenitor cells. The following applies: 100 nM.
In data set [16] the test system is mononuclear cells from AML patient samples. Kind of data set: Cell viability assay (Sytox blue flow cytometry) in primary AML samples. It is filed as cell-based, human. The settings on record: combination at 1:1 ratio, read-out: 50% lethal concentration (LC50). How it is done: Bone marrow samples from patients with AML were collected after informed consent in accordance with guidelines approved by The Alfred Hospital Human research ethics committee.
Mononuclear cells were isolated by density-gradient centrifugation Ficoll-Hypaque (GE Healthcare, Australia) density-gradient centrifugation and red cell lysis was performed using 0.156 M NH4Cl, 0.017 M Tris-HCl pH 7.2 as previously described (Rijal et al., Blood 2015, 125, 2815-2824). Cells were then re-suspended in phosphate-buffered saline containing 2% Fetal Bovine serum (FBS; Sigma, Australia). Mononuclear cells were then suspended in RPMI-1640 (GIBCO, Australia) medium containing penicillin and streptomycin (GIBCO) and heat inactivated fetal bovine serum 15% (Sigma). Cells were washed in phosphate-buffered saline (PBS) containing 2% FBS prior to use.
Freshly purified mononuclear cells from AML patient samples were adjusted to a concentration of 2.5×10^5/mL and 100 μL of cells aliquoted per well into 96 well plates (Sigma). Cells were then treated with idarubicin and Compound 2 over a […] concentration range from 1 nM to 10 μM for 48 hours. For combinations assays, drugs were added at a 1:1 ratio from 1 nM to 10 μM and cells were incubated at 37° C. 5% CO2. Cells were then stained with Sytox blue nucleic acid stain (Invitrogen, Australia) and fluorescence measured by flow cytometric analysis using the LSR-II Fortessa (Becton Dickinson, Australia). FACSDiva software was used for data collection, and FlowJo software for analysis. Blast cells were gated using forward and side scatter properties. Viable cells excluding Sytox blue were determined at 6 concentrations for each drug and the 50% lethal concentration (LC50, in μM) determined.
A general note: A flow cytometer gives signals particle by particle.

Where [17] appears, read: EOL-1, single agent, 3 days incubation, CellTiterGlo, read-out: IC50.
Where [18] appears, read: MOLM-13, single agent, 3 days incubation, CellTiterGlo, read-out: IC50.
[19] abbreviates: HL-60, single agent, 3 days incubation, CellTiterGlo, read-out: IC50.
Where [20] appears, read: Nomo-1, single agent, 3 days incubation, CellTiterGlo, read-out: IC50.
The mark [21] stands for this setting: KG1a, single agent, 3 days incubation, CellTiterGlo, read-out: IC50.
Setting [22] is: OCI-AML3, single agent, 3 days incubation, CellTiterGlo, read-out: IC50.
The mark [23] stands for this setting: MV4, 11, single agent, 3 days incubation, CellTiterGlo, read-out: IC50.
The mark [24] stands for this setting: GDM-1, single agent, 3 days incubation, CellTiterGlo, read-out: IC50.
[25] abbreviates: ML-2, single agent, 3 days incubation, CellTiterGlo, read-out: IC50.
[26] abbreviates: KG1, single agent, 3 days incubation, CellTiterGlo, read-out: IC50.
Setting [27] is: THP-1, single agent, 3 days incubation, CellTiterGlo, read-out: IC50.
Setting [28] is: PL-21, single agent, 3 days incubation, CellTiterGlo, read-out: IC50.
[29] abbreviates: Kasumi-1, single agent, 3 days incubation, CellTiterGlo, read-out: IC50.

Consider `COc1ccccc1-c1nccc(COc2ccccc2C[C@@H](Oc2ncnc3sc(-c4ccc(F)cc4)c(-c4ccc(OCCN5CCN(C)CC5)c(Cl)c4C)c23)C(=O)O)n1` [Compound 1, (2R)-2-{[(5Sa)-5-{3-chloro-2-methyl-4-[2-(4-methylpiperazin-1-yl)ethoxy]phenyl}-6-(4-fluorophenyl)thieno[2,3-d]pyrimidin-4-yl]oxy}-3-(2-{[2-(2-methoxyphenyl)pyrimidin-4-yl]methoxy}phenyl)propanoic acid], for which the half-inhibitory concentration (IC50) (usually the point on the concentration scale where inhibition reaches its midpoint) came to 0.001 µM in data set [1] (setting [17]); 0.002 µM in data set [2] (setting [18]); 0.025 µM in data set [3] (setting [19]); 0.013 µM in data set [4] (setting [20]); 2 µM in data set [5] (setting [21]); 0.146 µM in data set [6] (setting [22]). Further, the IC50 was determined as 0.001 µM in data set [7] (setting [23]); 0.008 µM in data set [8] (setting [24]); 0.005 µM in data set [9] (setting [25]); 0.39 µM in data set [10] (setting [26]); 0.017 µM in data set [11] (setting [27]); 0.065 µM in data set [12] (setting [28]). Besides, the concentration for half-maximal inhibition (IC50) in [13] (setting [29]) worked out at 0.033 µM.

Regarding `Cc1c(-c2c(-c3ccc(F)o3)sc3ncnc(O[C@H](Cc4ccccc4OCc4ccnn4CC(F)(F)F)C(=O)O)c23)ccc(OCCN2CCN(C)CC2)c1Cl` [Compound 2, (2R)-2-{[(5Sa)-5-{3-chloro-2-methyl-4-[2-(4-methylpiperazin-1-yl)ethoxy]phenyl}-6-(5-fluorofuran-2-yl)thieno[2,3-d]pyrimidin-4-yl]oxy}-3-(2-{[1-(2,2,2-trifluoroethyl)-1H-pyrazol-5-yl]methoxy}phenyl)propanoic acid], the IC50 stood at 0.002 µM in data set [1] (setting [17]); 0.004 µM in [2] (setting [18]); 0.086 µM in data set [3] (setting [19]); 0.022 µM in [4] (setting [20]); 2.2 µM in [5] (setting [21]); 0.34 µM in [6] (setting [22]). Also, the IC50 in data set [7] (setting [23]) is 0.001 µM; in data set [8] (setting [24]), 0.027 µM; in data set [9] (setting [25]), 0.022 µM; in [10] (setting [26]) it was 0.413 µM; in data set [11] (setting [27]) it was 0.051 µM; in [12] (setting [28]), 0.238 µM. Also, the IC50 in [13] (setting [29]) came to 0.066 µM. The clonogenic growth result in [14] and in data set [15] was “resistant” each time. The CC50 stood at 0.227 µM in data set [16] (Patient AML 6200840, 48 hours); 10.7 µM in data set [16] (Patient AML AH0131936, 48 hours); 23 µM in data set [16] (Patient AML AH0465385, 48 hours); 22.9 µM in data set [16] (Patient AML AH0607688, 48 hours); 0.0618 µM in data set [16] (Patient AML AH0979006, 48 hours); 4.36 µM in [16] (Patient AML AH1081582, 48 hours). Further, the CC50 is 5360 µM in data set [16] (Patient AML AH1228742, 48 hours); 0.679 µM in [16] (Patient AML AH6120264, 48 hours); 15.5 µM in data set [16] (Patient AML AH6181414_2, 48 hours); 13 µM in data set [16] (Patient AML AH6202849, 48 hours); 21.6 µM in data set [16] (Patient AML AH6208160, 48 hours); 9.42 µM in data set [16] (Patient AML AH6208654, 48 hours). In addition, the CC50 in data set [16] (Patient AML AH6210946, 48 hours) stood at 0.0556 µM; in [16] (Patient AML AH6214498, 48 hours) it was 0.000868 µM; in [16] (Patient AML AH6217528, 48 hours), 1.16 µM; in data set [16] (Patient AML AH6219953, 48 hours), 38.8 µM; in data set [16] (Patient AML AH6220847, 48 hours) it was 0.21 µM; in data set [16] (Patient AML AH6223646, 48 hours), 0.148 µM. Further, the CC50 in data set [16] (Patient AML AH6224104, 48 hours) is 608 µM; in data set [16] (Patient AML AH6229985, 48 hours), 0.00483 µM; in data set [16] (Patient AML AH6607085, 48 hours), 0.143 µM; in data set [16] (Patient AML AH6615742, 48 hours) it was 14.5 µM; in data set [16] (Patient AML AH6627892, 48 hours), 14.2 µM.

Regarding `Nc1ncn([C@H]2C[C@H](O)[C@@H](CO)O2)c(=O)n1` [Decitabine, decitabine], the IC50 in [1] (Homo sapiens, EOL1, 72 h) is 0.49 µM; in data set [2] (Homo sapiens, MOLM-13, 72 h) it was 0.4 µM; in [3] (Homo sapiens, HL-60, 72 h), 14 µM; in data set [4] (Homo sapiens, NOMO-1, 72 h), more than 5 µM; in data set [5] (Homo sapiens, KG-1a, 72 h), 14 µM; in data set [6] (Homo sapiens, OCI-AML-3, 72 h), 8 µM. The IC50 in [7] (Homo sapiens, MV4-11, 72 h) was 0.4 µM; in data set [8] (Homo sapiens, GDM-1, 72 h), 41 µM; in data set [9] (72 h), 14 µM; in data set [10] (72 h) it was 5.8 µM; in [11] (Homo sapiens, THP-1, 72 h), more than 30 µM; in data set [12] (PL-21, 72 h), more than 5 µM. Besides, in data set [13] (Homo sapiens, Kasumi 1, 72 h), the concentration for half-maximal inhibition (IC50) was determined as 5.5 µM.
